Literature values as cited in patent publication US7803400B2, “Artificial low-density lipoprotein carriers for transport of substances across the blood-brain barrier” (Blanchette Rockefeller Neurosciences Institute, priority 2002, dated 2010).

What was measured:
[1] = tested on: PKC
[2] = tested on: murine leukemias and solid tumors
[3] = tested on: cyclin dependent kinase 2 (Cdk2); conditions: at 5 ng/ml
[4] = tested on: PKC in K562 cells
[5] = molecular target: T1, PKCC (Homo sapiens, UniProt Q02156)
T1 sequence (Q02156 1-737): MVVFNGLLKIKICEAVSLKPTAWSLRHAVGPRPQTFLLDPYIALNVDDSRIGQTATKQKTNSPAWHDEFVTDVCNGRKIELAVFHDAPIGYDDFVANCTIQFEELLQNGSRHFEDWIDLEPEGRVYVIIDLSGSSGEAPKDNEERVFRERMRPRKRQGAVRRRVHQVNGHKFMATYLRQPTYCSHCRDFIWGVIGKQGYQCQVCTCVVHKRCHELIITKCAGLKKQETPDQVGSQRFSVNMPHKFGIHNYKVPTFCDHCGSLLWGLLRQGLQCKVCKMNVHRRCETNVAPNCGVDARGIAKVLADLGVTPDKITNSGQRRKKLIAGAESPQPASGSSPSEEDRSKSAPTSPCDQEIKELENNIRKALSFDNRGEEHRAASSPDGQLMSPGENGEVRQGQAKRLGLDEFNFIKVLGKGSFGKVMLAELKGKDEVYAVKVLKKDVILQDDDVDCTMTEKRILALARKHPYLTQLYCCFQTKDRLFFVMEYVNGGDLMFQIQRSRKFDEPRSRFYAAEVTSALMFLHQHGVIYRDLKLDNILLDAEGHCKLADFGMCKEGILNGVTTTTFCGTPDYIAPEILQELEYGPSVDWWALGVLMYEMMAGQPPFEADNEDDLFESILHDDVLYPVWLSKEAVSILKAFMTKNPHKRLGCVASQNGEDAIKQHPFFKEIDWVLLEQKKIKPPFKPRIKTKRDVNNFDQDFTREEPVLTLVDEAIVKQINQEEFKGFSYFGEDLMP

CCCCCCCC(=O)O[C@H]1/C(=C/C(=O)OC)C[C@H]2C[C@H](CO)OC(=O)C[C@H](O)CC3CCC[C@H](C[C@@H]4CCO[C@H](/C=C/C(C)(C)[C@]1(O)O2)O4)O3 [Analog 1]
potency relative to bryostatin-1 [1]: about 100 times | Ki ([1]; read-out: PKC Affin): 0.25 nM

Gnidimacrin
concentrations of potent antitumor activity [2]: 0.1 to 1 nM | inhibition of Cdk2 [3]: 100% | concentration at which it acts as PKC activator [4]: ≈ 3 nM

CCCCCC1CC1CC1CC1CCCCCCCC(=O)O (stereo not drawn) [DCP-LA, 2-[(2-pentylcyclopropyl)methyl]cyclopropaneoctanoic acid]
concentration of maximal effect on PKC activation [5]: 100 nM
